Values of other authors as cited in patent publication US20050065131A1, “2-alkylidene-19-nor-vitamin D derivatives for enhancement of peak bone mass in adolescence” (Pfizer Inc, priority 2003, published 2005).

System: Bone Calcium Mobilization
Conditions: at both dose levels (130 and 260 pmol/day), 7 days

C=C1[C@H](O)CC(=C/C=C2\CCC[C@]3(C)[C@@H]([C@H](C)CCCC(C)(C)O)CC[C@@H]23)C[C@H]1O [2-Methylene-19-Nor-1,25-(OH)2D3, 1α,25-dihydroxy-2-methylene-19-nor-vitamin D3]
bone calcium mobilization, result in words: extremely strong
